| Structure (SMILES) | melting point |
| --- | --- |
| CC(C)OP(=O)(COCCOc1nc(N)nc(N)c1C=O)OC(C)C | 225 to 227 °C |
| C=CCNc1nc(NCC)c2scc(C)c2n1 | 96 to 97 °C |
| CN(C)CCCCC(=O)c1ccc2c(c1)C(=O)c1cc(C(=O)CCCCN(C)C)ccc1-2 | 150 to 151 °C |
| O=C1NCCCCC1(Br)Br | 156 to 159 °C |
| CC(C)OP(=O)(CNc1cc(Oc2ccc(C(F)(F)F)cc2Cl)ccc1[N+](=O)[O-])OC(C)C | 93 to 94 °C |
| C=CC1CCC2c3ccc(OCC)c(F)c3OC2C1 (stereo unspecified) | 141 °C |
| CCCN1CCc2cc(NC(=O)C(=O)N[C@H]3CCOC3O)ccc21 (stereo partly specified) | 120 to 122 °C |
| Cc1nnc2n1-c1sc(CCc3ccccc3)cc1C(c1ccccc1Cl)=NC2 | 106 to 108 °C |
| CC1(C)Oc2c([N+](=O)[O-])ccc(Cl)c2C1Br (stereo unspecified) | 103 to 104 °C |
| O=C(O)CC1CCC(N2CCN(CCNc3ccncc3)CC2)CC1 (stereo unspecified) | 220 °C |
| O=c1[nH]c2cc(Cl)ccc2n1C1CCN(Cc2cccc(-c3ccc(Cl)cc3)n2)CC1 | 203 to 205 °C |
| COc1ccc(C#N)c(F)c1OC | 64 to 65 °C |
| CC(C)C(=O)c1c(C(C)(C)C)cc(C=[N+]([O-])C(C)(C)C)cc1C(C)(C)C | 197 to 208 °C |
| CCOC(=O)Nc1ccc2c(c1)CCSCC2=O | 145 to 146 °C |
| CCCCCCCCCCCCCCCCCCNC(=O)c1ccccc1N | 89 to 90 °C |
| CC(=O)NC[C@H]1CN(c2ccc(N3CCC4(CC3)OCCS4)c(F)c2)C(=O)O1 | 160 to 164 °C |
| CC(C)(C)c1cc(SCCc2nncs2)cc(C(C)(C)C)c1O | 118 to 120 °C |
| CC(C)Nc1nc2cc(Cl)c(Cl)cc2[nH]1 | 218 to 220 °C |
| CC1CCCC(C)C1=CC1C(C(=O)O)C1(C)C (stereo unspecified) | 96 °C |
| CCC(Br)=C(CC)S(=O)(=O)CBr | 96 to 97 °C |
| CCOC(=O)N1C=CSC1C1=C(C)N=CC(OC)(OC)S1 (stereo unspecified) | 148 to 149 °C |
| CCCCN(CCCC(=O)O)C(=O)c1ccccc1 | 62 to 64 °C |
| CCC1SC=C(C)NC1=O (stereo unspecified) | 69 to 71 °C |

| Structure (SMILES) | melting point |
| --- | --- |
| N#Cc1c(Br)cc(Br)c(CCC(=O)O)c1Br | 164 to 166 °C |
| COC(=O)C(C(=O)OC)=C(C)N | 81 to 82 °C |
| CC(=O)CC(=O)c1ccc(C)nc1 | 57 to 58 °C |
| O=C1OC2(CCN(CCOC(c3ccccc3)c3ccccc3)CC2)c2ccccc21 | 99 to 100 °C |
| CCCCCCCCCCCCCCCCOC(=O)Cl | > 230 °C |
| CC(=NO)C(C)(C)NCC(CNC(C)(C)C(C)=NO)CC(O)Cn1ccnc1[N+](=O)[O-] (stereo unspecified) | 185 to 187 °C |
| C=C(C)C(=O)OCC(COC(=O)C(=C)C)Cc1ccc(-c2ccc(OC(=O)C(=C)C)cc2)cc1 | 49 °C |
| COC1OC(CO)C(O)C(OC)C1O (stereo unspecified) | 56 to 58 °C |
| CC(=O)NCCc1nnc(S)s1 | 157 to 160 °C |
| Cc1nc(C)c(CC#N)cc1CC#N | 65 to 67 °C |
| OC(=S)c1cc(C(F)(F)F)c(Cl)cc1Cl | 112 to 114 °C |
| OCCNC(=S)C1(c2ccccn2)CCCS1 (stereo unspecified) | 132 °C |
| CCC1NC(c2cc(Cl)nc(Cl)c2)=NC(=O)C1(CC)C(=O)OC (stereo unspecified) | 202 to 203 °C |
| CN(C)C(=O)N1CCC(=NO)c2cc(F)ccc21 | 147 to 150 °C |
| COc1cc(C=O)cc2c(C)c(C)oc12 | 80 to 81 °C |
| CSC(=C[N+](=O)[O-])NCCSCc1cc(C)c(CN(C)C)s1 | 69 to 71 °C |
| C#CC[C@H]1CC[C@H](CO)CC1 | 106 to 108 °C |
| O=C1CCC(=C2CCC(C3CCCCC3)CC2)CC1 (stereo unspecified) | 81 to 81.5 °C |
| O=C(CS)N[C@@H](CS)C(=O)O | 121 °C |
| COc1cccc2c1CN(c1c(F)c(F)c3c(=O)c(C(=O)O)cn(C4CC4)c3c1F)C2 | > 280 °C |
| CC(=O)Oc1ccc(C(=O)O)c(C)c1 | 136 to 138 °C |
| CN1C(=O)C2(COc3cc4c(cc32)OCCO4)c2c(NC(=O)C3CCC3)cccc21 (stereo unspecified) | 234 to 236 °C |
| CC(=O)C(=[N+]=[N-])S(=O)(=O)C(C)C | 53 to 55 °C |

Now from value to molecule:

| melting point | Structure (SMILES) |
| --- | --- |
| 85 °C | COc1ccc(OC)c(NC(=O)Cc2ccccc2)c1 |
| 149 to 150 °C | O=C(Nc1ccc(Cl)cc1C(=O)NCc1ccc2c(c1)OCO2)Oc1ccccc1 |
| 190 to 191 °C | CCc1nnc(NS(=O)(=O)c2ccc(N)cc2)s1 |
| 111 to 114 °C | O=C(OCC1OC(n2ccc(=O)[nH]c2=O)C(O)C1OC(=O)c1ccccc1)c1ccccc1 (stereo unspecified) |
| 180 to 181 °C | CCCCc1nc2cnc3ccccc3c2n1CC1(O)CCOCC1 |
| 186 to 190 °C | CC1CS/C(=N/N=C\c2ccc(-c3ncn(-c4ccc(OC(F)(F)F)cc4)n3)cc2)N(c2ccccc2C(C)C)C1 (stereo unspecified) |
| 193 to 195 °C | C=Cc1ccc(-c2cc(NC(=O)C3Cc4ccccc4C3)n[nH]2)cc1 |
| 170 to 171 °C | COc1cc(OCC(=O)O)c(C)cc1SCc1ccc(-c2ccc(C(F)(F)F)cc2)cc1 |
| 96 to 98 °C | COC(=O)c1ccc(NCCNC(=O)C2Cc3ccccc3N2S(=O)(=O)c2ccc(-c3cc(C(F)(F)F)ccc3Cl)cc2)cc1 (stereo unspecified) |
| 154 to 156 °C | O=C(O)C=Cc1cc(OCc2ccccc2)cc(OCc2ccccc2)c1 |
| 151 to 153 °C | CCOC(=O)c1csc(/C=C/c2cccc([N+](=O)[O-])c2)n1 |
| 193 to 196 °C | COC(=O)c1cccc(Oc2cccc(-c3nn(C)c(=Nc4ccc(Cl)c(Cl)c4)s3)c2)c1 |
| 122 to 125 °C | CCOC(=O)c1ccc(C(Cc2ccc(F)cc2)C(=O)Nc2nc3ccccc3o2)cc1 (stereo unspecified) |
| > 250 °C | COc1ccc2c(Cc3c(Cl)cncc3Cl)nnc(-n3ccnc3)c2c1 |
| 145 °C | C[C@@H](N)CNc1ccnc2cc(Cl)ccc12 |
| 75 to 76 °C | Cc1nc(-c2ccccc2)n[nH]c1=O |
| 131 to 132 °C | C[C@H](C#Cc1sc(Cc2ccc(F)cc2)cc1Cl)N(O)C(N)=O |
| 318 to 325 °C | CCOC(=O)c1ncc2[nH]c3c([N+](=O)[O-])cccc3c2n1 |
| 165 to 166 °C | Clc1cc(Nc2ccc(N3CCOCC3)cc2)ncn1 |
| 245 to 246 °C | Cn1cc(-c2ccc3nc(NC(=O)c4ccc(C(C)(C)C)cc4)cn3n2)cn1 |

| melting point | Structure (SMILES) |
| --- | --- |
| 109 to 111 °C | COC(=O)c1sc(C(C)(C)C)cc1NC(=O)Nc1ccc(C)cc1 |
| 101 to 102 °C | CC1=C(C)C(=O)C(NCc2ccccc2)=CC1=O |
| 174 to 175 °C | N#Cc1c[nH]c(-c2ccc(Cl)cc2)c1 |
| 198 °C | COc1ccc(C(=O)c2cc(-c3ccc(NC(C)=O)cc3)c(N3CCOCC3)s2)cc1 |
| 89.5 °C | CC(=O)CC(=O)Nc1ccc(Nc2ccccc2)cc1 |
| 151 to 152 °C | c1coc(-c2nnc(-n3ccnc3)c3ccccc23)c1 |
| 250 to 252 °C | Cc1ccc(Cl)c(Nc2ccccc2-c2n[nH]c(=S)s2)c1Cl |
| 158 to 159 °C | OCC(O)(Cc1ccc(Cl)cc1Cl)c1cccnc1 (stereo unspecified) |
| 206 °C | N#CC(c1ccc(Cl)cc1)c1ccc(-n2ncc(=O)[nH]c2=O)cc1 (stereo unspecified) |
| 188 to 189 °C | NC(=S)Nc1ccc(Br)cc1 |
| 97 °C | CCC(O)(CC)c1ccc(-c2ccc(OCc3ccc(CO)c(CO)c3)cc2)c(C)c1 |
| 177 to 179 °C | CS(=O)(=O)c1ccc(-c2cnn(CC(F)(F)F)c(=O)c2-c2ccc(F)cc2)cc1 |
| > 300 °C | O=[N+]([O-])c1ccc(-c2cnn3c(O)ncnc23)cc1 |
| 216 to 220 °C | COC(=O)C1=C(C)Nc2c(c(C)nn2C)C1c1ccccc1[N+](=O)[O-] (stereo unspecified) |
| 104 to 106 °C | COC(=O)COc1ccc(-c2ccc(C(=O)O)cc2)cc1-c1ccc2c(c1)C(C)(C)CCC2(C)C |
| 199 to 201 °C | Cc1cc(SC2=C(O)CC(CCc3ccc(O)cc3)(C3CCCC3)OC2=O)c(C(C)(C)C)cc1CO (stereo unspecified) |
| 165 to 167 °C | CCOc1cc(C(=O)O)cc(N)c1Cc1ccccc1 |
| 218 to 219 °C | CC(C)Cn1c(CNC(=O)OC(C)(C)C)c(-c2ccccc2)c2cc(O)ccc2c1=O |
| 104 to 106 °C | CCCc1nn(C)c2c(=O)n(CCCNc3ccc(OC(C)(C)C(=O)O)cc3)c(C)nc12 |
| 178 to 180 °C | Cn1c2c3ccccc3nc-2cc2ccccc21 |

| melting point | Structure (SMILES) |
| --- | --- |
| 45 to 47 °C | CC(=O)Sc1ccc(C#C[Si](C)(C)C)cc1 |
| 190 to 193 °C | C[C@H](NN1C(=O)c2ccccc2S1(=O)=O)C(=O)N[C@@H](Cc1ccccc1)C(=O)O |
| 77 to 79 °C | OCCSc1nc(-c2ccccc2)c(-c2ccccc2)s1 |
| 185 °C | CCc1ccc2c(c1)C=Cc1cc(C)ccc1C2c1cn(-c2ccnc(N3CCCC3C(=O)O)n2)c(=O)[nH]c1=O (stereo unspecified) |
| 132 to 133 °C | Nc1ncnc2ncn(CCO)c12 |
| 314 to 315 °C | O=c1[nH]c(=O)n2c3c(cccc13)CC2 |
| 193 to 196 °C | COc1cc(NC(=O)NS(=O)(=O)c2ccccc2Cl)nc(OC)n1 |
| 156 to 159 °C | O=C(Nc1ccc(-n2nc(C(F)(F)F)cc2C(F)(F)F)nc1)c1ccccc1Cl |
| 61 to 62 °C | Cc1cc(CCCCCOc2ccc(C#N)cc2)no1 |
| 50 to 52 °C | CCOC(=O)CC(=O)NCc1ccccc1 |
| 154 to 157 °C | CC(C(=O)C=Cc1ccccc1)C(=O)C=Cc1ccccc1 (stereo unspecified) |
| 46.5 to 47.5 °C | CCOC(=O)c1c(C)nn(-c2cccc(C)c2)c1C |
| 162 to 163 °C | CC1(C)OC(c2ccc(S(N)(=O)=O)cc2)=C(c2ccc(F)cc2)C1=O |
| 131 to 134 °C | Cc1cn(C(C)(C)C(=O)N(C)C)nc1-c1ccco1 |
| 167 to 169 °C | CC(=O)N(O)C(CS(=O)(=O)c1ccc(-c2cccc(CNC(=O)c3nc4ccccc4c(=O)[nH]3)c2)cc1)C(C)C (stereo unspecified) |
| 67.5 to 68 °C | COCCOc1ccc(C=O)c(OCc2ccccc2)c1 |
| 110 °C | C=C(C)C(=O)OCCOc1ccc(N=Nc2ccc(C#N)cc2)cc1C#N |
| 228 to 230 °C | COc1ccc(-c2cc3cc(F)c(F)cc3[nH]2)cc1NS(=O)(=O)c1cccc([N+](=O)[O-])c1 |
| 117 to 118 °C | CC(C)(SCc1ccccc1)[C@@H]1C[C@H](CSCc2ccccc2)C(=O)N1CC(=O)O (relative stereo) |
| 209 to 211 °C | COc1ccc(NC(=O)Nc2ccc(Cl)c(Cl)c2)cc1NC(=S)Nc1cccc(C(=O)O)c1 |

Source: a melting point compilation (Tetko et al.; mined from patent text by program, amines drawn as free bases though some values may be those of a salt)
